Test results as given in ChEMBL document CHEMBL1148375, “Discovery of a bulky 2-tert-butyl group containing primaquine analogue that exhibits potent blood-schizontocidal antimalarial activities and complete elimination of methemoglobin toxicity” (J Med Chem, 2004).
Values after ≈ are worked out from the molar mass of the structure shown. Active and inactive are the calls of the source. The calls are words filed in the database; no cut-off is given here.

Columns and labels:
Format in all cases: functional, organism-based
[1] = tested on: Mus musculus; test: (§1) Compound was evaluated for the blood-schizonticidal antimalarial activity against Plasmodium berghei (sensitive strain) in mice (Mus musculus) at 100 mg/kg/day x 4 (oral); indicates that the treated animals show positive parasitaemia either on D+4 or D+7 and usually dieby D+14 (survival=0/6)
[2] = tested on: Plasmodium falciparum; test: Inhibitory concentration against chloroquine-sensitive Plasmodium falciparum
[3] = tested on: Mus musculus; test: as §1, with “yoelii nigeriensis (multidrug-resistant” for “berghei (sensitive”, “orD+7” for “or D+7”, “die by” for “dieby”
[4] = tested on: Mus musculus; test: Compound was evaluated for the blood-schizonticidal antimalarial activity against Plasmodium berghei (sensitive strain) in mice (Mus musculus) at 25 mg/kg/day x 4 (oral); indicates complete elimination of malaria parasites from the body, and animals survive up to day D+60 (survival=6/6)
[5] = tested on: Mus musculus; test: Compound was evaluated for the blood-schizonticidal antimalarial activity against Plasmodium berghei (sensitive strain) in mice (Mus musculus) at 50 mg/kg/day x 4 (oral); indicates complete elimination of malaria parasites from the body, and animals survive up to day D+60 (survival=6/6)
[6] = tested on: Mus musculus; test: Compound was evaluated for the blood-schizonticidal antimalarial activity against Plasmodium yoelii nigeriensis (multidrug-resistant strain) in mice (Mus musculus) at 50 mg/kg/day x 4 (oral); indicates that all of the treated animals show negative parasitaemia up to D+7(survival=4/6)
[7] = tested on: Mus musculus; test: Compound was evaluated for the blood-schizonticidal antimalarial activity against Plasmodium berghei (sensitive strain) in mice (Mus musculus) at 10 mg/kg/day x 4 (oral); indicates that all of the treated animals show negative parasitaemia up to D+7 (survival=4/6)
[8] = tested on: Plasmodium falciparum; test: Inhibitory activity I50 against chloroquine-sensitive Plasmodium falciparum
[9] = tested on: Mus musculus; test: Compound was evaluated for the blood-schizonticidal antimalarial activity against Plasmodium yoelii nigeriensis (multidrug-resistant strain) in mice (Mus musculus) at 100 mg/kg/day x 4 (oral); indicates complete elimination of malaria parasites from the body, and animalssurvive up to day D
[10] = tested on: Mus musculus; test: Compound was evaluated for the blood-schizonticidal antimalarial activity against Plasmodium berghei (sensitive strain) in mice (Mus musculus) at 100 mg/kg/day x 4 (oral); indicates complete elimination of malaria parasites from the body, and animals survive up to day D+60 (survival=6/6)

Row | SMILES | Antimalarial activity [1] | IC50 [2] | Antimalarial activity [3] | Antimalarial activity [4] | Antimalarial activity [5] | Antimalarial activity [6] | Antimalarial activity [7] | IC50 [8] | Antimalarial activity [9] | Antimalarial activity [10]
1 | COc1cc(NC(C)CCCN)c2nc(C34C[C@H]5C[C@@H](C3)C[C@@H](C4)C5)ccc2c1 (some centres not stated) | inactive | > 0.5 µg/mL | inactive | – | – | – | – | – | – | –
2 | COc1cc(NC(C)CCCN)c2nc(C(C)(C)C)ccc2c1 (configuration not stated) | – | – | – | Curative | Curative | Active | Active | 0.0391 µg/mL (≈ 0.124 µM) | Curative | Curative
3 | COc1cc(NC(C)CCCN)c2ncccc2c1 (configuration not stated) | inactive | – | inactive | – | – | – | – | – | – | –
